This passage reports TGI and GI50 results from PubChem BioAssay (NCI).

Some test systems named below: A549 NSCLC; HCT-116 colon; HL-60(TB) leukemia; HT29 colon; IGROV1 ovarian; SK-MEL-5 melanoma; UACC-257 melanoma; BT-549 breast; KM12 colon.
Assay in all cases: growth of human tumour cells (NCI), 48 h

Values joined by “and” are separate entries in the source; they are usually repeats but may differ in a detail not shown here. Identical values can stand only once.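 All cell lines were grown in 96-well plates and treated with compound for 48 hours. Here, GI50 denotes the concentration required for 50% inhibition of growth. TGI denotes the concentration required for complete inhibition of growth.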 Where a SMILES comes first, the peptide text is derived from it. The star is where a group is joined. Cbz = O=C(OCc1ccccc1)* A value given as a limit tells only on which side of the number the result lay.

Take `COC(=O)N[C@H](C(=O)NC(OCc1ccccc1)C1COC(C)(C)O1)C(C)O[Si](C)(C)C(C)(C)C` (stereo not given in full): the TGI with A549 NSCLC was more than 100 µM; in the assay with HCT-116 colon, more than 100 µM; in the assay on HL-60(TB) leukemia it was more than 100 µM; in the assay with HT29 colon, more than 100 µM; with IGROV1 ovarian, more than 100 µM; in the assay on SK-MEL-5 melanoma, 65.8 µM. This compound also came in with a TGI in the assay with UACC-257 melanoma of more than 100 µM.

For the compound `COc1cccc(-c2nc(-c3cnccn3)n(C/C=C/c3ccccc3)n2)c1`, the TGI with A549 NSCLC, in the assay on BT-549 breast, with HT29 colon, in the assay on IGROV1 ovarian, with KM12 colon and with UACC-257 melanoma was more than 10 µM each time.

Take `CCOC(=O)C(NC(=O)c1ccccc1)(N1CCN(c2cc3c(cc2F)c(=O)c(C(=O)O)cn3C2CC2)CC1)C(F)(F)F` (stereo not given): the TGI with A549 NSCLC is more than 100 µM; in the assay with BT-549 breast, 50.9 µM; in the assay on HCT-116 colon, 31.6 µM; with HL-60(TB) leukemia it was 36.5 µM; in the assay on IGROV1 ovarian it was 92.5 µM; in the assay on KM12 colon, 31.7 µM. Besides, the TGI with SK-MEL-5 melanoma worked out at 29.4 µM.

On to `CC(=O)Nc1c(C(=N)C#N)ncn1CCO`, for which the TGI in the assay with A549 NSCLC, with HCT-116 colon, in the assay on HT29 colon, with IGROV1 ovarian, in the assay with KM12 colon and in the assay on SK-MEL-5 melanoma was more than 100 µM each time. In addition, the TGI in the assay with UACC-257 melanoma was more than 100 µM.

With `COC(=O)[C@@H](NC(=O)N(Cc1ccccc1)C[C@H](CC(C)C)NC(=O)[C@@H](NC(=O)OC(C)(C)C)C(C)C)C(C)C`, the TGI with A549 NSCLC, in the assay on BT-549 breast, in the assay with HCT-116 colon, with HL-60(TB) leukemia, in the assay on HT29 colon and in the assay with KM12 colon was more than 100 µM throughout. Besides, the TGI with SK-MEL-5 melanoma and in the assay on UACC-257 melanoma was more than 100 µM in each case.

For the compound `CC(=O)c1c(N=[N+]=[N-])c2cccc3c2n(c1=O)CCC3`, the TGI in the assay with A549 NSCLC is more than 100 µM; in the assay with BT-549 breast, 39.8 µM; in the assay on HCT-116 colon, 33.5 µM; in the assay on HT29 colon it was 35.5 µM; with IGROV1 ovarian it was 42.8 µM; with KM12 colon it was 28.7 µM. Moreover, the TGI was determined as 28.5 µM in the assay on SK-MEL-5 melanoma and 37.8 µM in the assay with UACC-257 melanoma.

As to `Oc1c(Br)ccc2cccnc12`, the TGI in the assay on A549 NSCLC was more than 100 µM; in the assay with BT-549 breast it was more than 92.2 µM; with HCT-116 colon, more than 100 µM; in the assay with HL-60(TB) leukemia, 1.32 µM; in the assay on HT29 colon, more than 35.8 µM; in the assay with IGROV1 ovarian, 15.6 µM. In addition, the TGI in the assay on KM12 colon is more than 100 µM; in the assay on SK-MEL-5 melanoma, more than 39.2 µM.

Take `Cc1ccc2c(c1)CC1(Cc3cccc(C)c3C1=O)C2=O` (stereo not given): the TGI in the assay with A549 NSCLC, with HCT-116 colon, with HL-60(TB) leukemia, with HT29 colon, in the assay on IGROV1 ovarian and in the assay with SK-MEL-5 melanoma was more than 100 µM throughout. The TGI in the assay with UACC-257 melanoma is more than 100 µM.

Turning to `CC1(C)OP(=O)(O)C=C1Sc1ccc([N+](=O)[O-])cc1[N+](=O)[O-]`, the TGI in the assay with A549 NSCLC, with HCT-116 colon, in the assay on HL-60(TB) leukemia, in the assay on HT29 colon, in the assay with IGROV1 ovarian and in the assay with KM12 colon was more than 100 µM each time. Also, the TGI in the assay on SK-MEL-5 melanoma and in the assay on UACC-257 melanoma was more than 100 µM each time.

In the case of `C/C=C\C(CC(=O)NCC(=O)c1c[nH]c2ccccc12)CC(=O)OC` (stereo not given), the TGI in the assay with A549 NSCLC, with BT-549 breast, with HCT-116 colon, in the assay with HT29 colon, in the assay on IGROV1 ovarian and in the assay with KM12 colon was more than 100 µM each time. Moreover, the TGI with SK-MEL-5 melanoma and in the assay on UACC-257 melanoma was more than 100 µM throughout.

As to `Cn1nnnc1SC(F)(F)c1nc2ccccc2o1`, the TGI with A549 NSCLC, in the assay with BT-549 breast, in the assay with HCT-116 colon, with HT29 colon, with IGROV1 ovarian and in the assay with KM12 colon was more than 100 µM each time. Further, the TGI in the assay on SK-MEL-5 melanoma and in the assay with UACC-257 melanoma was more than 100 µM throughout.

Regarding `CN1CCN(/C(N)=C(\C#N)C(=O)Nc2ccc(Cl)cc2)CC1`, the TGI in the assay with A549 NSCLC, with BT-549 breast, in the assay with HCT-116 colon, in the assay with HT29 colon, with IGROV1 ovarian and with KM12 colon was more than 100 µM each time. The TGI in the assay on SK-MEL-5 melanoma and with UACC-257 melanoma was more than 100 µM each time.

Take `COc1ccc(/C(Cl)=C(\C#N)c2ccc(OC)c(OC)c2)cc1OC`: the TGI in the assay on A549 NSCLC, in the assay on BT-549 breast, with HCT-116 colon, in the assay on HL-60(TB) leukemia, with HT29 colon and with IGROV1 ovarian was more than 100 µM throughout. The TGI in the assay on SK-MEL-5 melanoma and in the assay on UACC-257 melanoma was more than 100 µM throughout.

On to `CC(=O)c1ccc2c(c1)C(=O)c1sc(C(C)=O)cc1C2=O`, for which the TGI in the assay with A549 NSCLC was 9.41 µM and 7.41 µM; with HCT-116 colon it was 14.3 µM and 12.3 µM; with HL-60(TB) leukemia, 50 µM; with HT29 colon, 2.82 µM and 9.47 µM; with IGROV1 ovarian, 2.55 µM and 1.59 µM; with KM12 colon, 2.34 µM and 1.48 µM. Besides, the TGI in the assay with SK-MEL-5 melanoma came to 1.89 µM. The GI50 was 349 nM in the assay with HCT-116 colon, 2710 nM with HT29 colon, 430 nM with IGROV1 ovarian and 313 nM in the assay with KM12 colon.

Take `CCOC(=O)CCC(NC(=O)OCc1ccccc1)C(=O)NC(CCC(=O)OCC)C(=O)OCC` (stereo not given) (Cbz-Glu(OEt)-Glu(OEt)-OEt; configuration not given here): the TGI with A549 NSCLC, in the assay on HCT-116 colon, in the assay with HT29 colon, in the assay with IGROV1 ovarian, in the assay with KM12 colon and in the assay on SK-MEL-5 melanoma was more than 100 µM throughout. In the assay with UACC-257 melanoma, this compound gave a TGI of more than 100 µM.

Consider `C=C1CC[C@H]2C(=O)OC(c3ccoc3)C[C@]2(C)C/C=C\C=C/1C(=O)OC` (stereo not given in full), for which the TGI with A549 NSCLC, with BT-549 breast, in the assay with HCT-116 colon, in the assay with HT29 colon, in the assay on IGROV1 ovarian and with KM12 colon was more than 25 µM in each case. Further, the TGI in the assay on SK-MEL-5 melanoma and in the assay with UACC-257 melanoma was more than 25 µM in each case.

Turning to `O=C(NCCN1CCOCC1)c1ccc(I)cc1`, the TGI in the assay on A549 NSCLC, with BT-549 breast, in the assay with HL-60(TB) leukemia, in the assay on HT29 colon, in the assay on IGROV1 ovarian and in the assay on SK-MEL-5 melanoma was more than 100 µM each time.
